# Source: US20230193336A1, “ENASIDENIB GLYCOSIDES AND METHODS OF TREATING DISEASES ASSOCIATED WITH ISOCITRATE DEHYDROGENASE (IDH) DYSFUNCTION” (Double Rainbow Biosciences Inc., priority 2020, published 2023)
# Where two headings read alike, the source gives them in different places.
# Tests used:
# physchem = type: physicochemical
# Experimental: The water solubility of enasidenib and enasidenib-O-D-glucoside was investigated by suspending excess amounts of the two compounds in 200 μl of distilled water in a microcentrifuge tube at 25° C. for 12 h. Afterwards, each sample was centrifuged at 12,000×g for 20 min. The supernatant of each sample was then filtered through a 0.45-μm membrane filter and the concentration of the compound in the supernatant, which is defined as the water-soluble component, was measured by its absorbance at 254 nm using HPLC, and its absolute solubility was calculated in reference to the concentration-absorbance standard curve.
# [1] = test system: cancer cell lines containing endogenous or exogenously expressed mutant IDH2; settings: cancer cell lines with endogenous or exogenously expressed mutant IDH2; cited from earlier work
# cell culture assays = settings: cited from earlier work
# UGT1A1 = biological target: T1, UGT1A1 (Homo sapiens, UniProt P22309); settings: side effect: abnormal bilirubin metabolism; cited from earlier work
# T1 sequence (P22309 26-533): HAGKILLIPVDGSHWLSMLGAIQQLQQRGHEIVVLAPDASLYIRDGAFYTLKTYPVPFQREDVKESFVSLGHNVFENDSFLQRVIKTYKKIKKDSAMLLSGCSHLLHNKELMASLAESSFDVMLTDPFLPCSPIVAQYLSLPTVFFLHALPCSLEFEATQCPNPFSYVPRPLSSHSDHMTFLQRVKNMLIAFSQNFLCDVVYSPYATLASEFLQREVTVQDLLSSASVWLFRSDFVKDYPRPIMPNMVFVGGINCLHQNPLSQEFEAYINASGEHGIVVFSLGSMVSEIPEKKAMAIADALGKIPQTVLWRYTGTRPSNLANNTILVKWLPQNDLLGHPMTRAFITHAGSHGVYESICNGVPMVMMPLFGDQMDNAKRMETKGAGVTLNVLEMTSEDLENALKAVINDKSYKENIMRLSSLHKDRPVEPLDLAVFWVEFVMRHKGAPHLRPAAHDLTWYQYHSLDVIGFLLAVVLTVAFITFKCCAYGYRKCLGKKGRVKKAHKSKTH
# human AML patients = settings: cited from earlier work
# [2] = cited from earlier work
# [3] = test system: AML patients with an IDH2 mutation; settings: cited from earlier work
# [4] = test system: mouse xenograft models of AML; settings: cited from earlier work
# [5] = clinical trials; cited from earlier work
# [6] = 100 mg dose; cited from earlier work
# [7] = test system: IDH2 R140 and R172 mutant homodimers or heterodimers; settings: cited from earlier work
# [8] = in vivo; cited from earlier work
smiles,measurement,setting,value
CC(C)(CNc1nc(Nc2ccnc(C(F)(F)F)c2)nc(-c2cccc(C(F)(F)F)n2)n1)OC1O[C@H](CO)[C@@H](O)[C@H](O)[C@H]1O (stereo partly drawn) [enasidenib-O-D-glucoside],water solubility,physchem,40 µg/mL
same,water solubility relative to enasidenib,physchem,7 times
"CC(C)(O)CNc1nc(Nc2ccnc(C(F)(F)F)c2)nc(-c2cccc(C(F)(F)F)n2)n1 [enasidenib, Enasidenib]",solubility at 12 h,"physchem; 25 °C, water, thermodynamic from solid",6 µg/mL
same,2-HG concentration,[1],reduced the 2-HG concentration
same,differentiation,cell culture assays,induced differentiation
same,UGT1A1 inhibition,UGT1A1,inhibition of UGT1A1
same,2-HG concentration,human AML patients,reduced the 2-HG concentration
same,aqueous solubility,[2],less than 74 μg/mL
same,aqueous solubility,[2]; pH 7.4 (Yen et al. 2017),23 µM
same,AML patients with an IDH2 mutation who experienced complete remission,"[3]; human, in vivo",19.3%
same,overall response rate,"[3]; single therapeutic, AML and relapsed/refractory-AML patients with an IDH2 mutation",41%
same,2-HG concentration,[4],reduced the 2-HG concentration
same,patients who completely discontinued enasidenib,[5],17%
same,patients who had to stop taking the drug as a result of adverse events,[5],43%
same,patients with serious adverse events,[5],approximately 77%
same,oral bioavailability,[6],57%
same,lower inhibitory concentration for mutant IDH2 compared to the wild type IDH2,[7]; R140 and R172 mutant homodimers or heterodimers versus wild type IDH2,approximately 40 fold
same,inhibition kinetics,[7]; kinetics assays,slow on/slow off tight binding inhibition kinetics
C[C@@H](Nc1nc(N[C@H](C)C(F)(F)F)nc(-c2cccc(Cl)n2)n1)C(F)(F)F [AG-881],blood-brain barrier penetration,[8],can penetrate the blood-brain barrier
